The values below come from the NIST ThermoML archive (doi:10.1021/je100940w).

The mass density is the mass of a sample divided by its volume. In general, refractive index refers to the speed of light in vacuum divided by its phase velocity in the sample.

± gives the expanded uncertainty stated by the source.

For data set [1] the following is noted: 298.15 K; 101.33 kPa; Liquid; Vibrating tube method.
Data set [2] in a line: refractive index (Na D-line) (dimensionless). To be noted: 298.15 K; 101.33 kPa; Liquid; Standard Abbe refractometry.

Turning to `CC(=O)CC(C)C` [4-methylpentan-2-one], the mass density in data set [1] came out at 795.94 ± 0.14 kg/m3. In addition, the refractive index in data set [2] worked out at 1.3936 ± 0.0005. In the case of `CCC(C)O` (stereo not given) [butan-2-ol], the mass density in data set [1] worked out at 802.35 ± 0.24 kg/m3. Further, in data set [2], the refractive index amounted to 1.3949 ± 0.0005. As for `O` [water], in data set [2], the refractive index is 1.3332 ± 0.0005.
